Results reported in patent US4999354A, “Imidazoquinoxaline compounds and their preparation and use” (A/S Ferrosan, priority 1987, dated 1991).

Test system: benzodiazepine receptors
Test: in vivo displacement of 3H-flunitrazepam from brain benzodiazepine receptors in mice
Parameters: species or system mice (female, NMR)
Conditions: test substance intraperitoneally 15 min before 3H-FNM i.v., forebrains taken 20 min after 3H-FNM
Experimental: The ED50 value represents the dose (mg/kg) of a test substance which causes the specific binding of flunitrazepam to benzodiazepine receptors in a living brain to be reduced to 50% of the control value.
Such an in vivo test is carried out as follows:
Results. The ED50 value is determined from dose response curves.

SMILES: CC(C)n1c(=O)c2c(-c3nc(C4CC4)no3)ncn2c2ccccc21 [Compound 6, 3-(3-cyclopropyl-1,2,4-oxadiazol-5-yl)-4,5-dihydro-5-isopropyl-4-oxo-imidazo[1,5-a] quinoxaline]
- ED50 (dose that inhibits 50% of specific 3H-flunitrazepam binding to brain benzodiazepine receptors): 0.28 mg/kg
